Test results reported in patent publication US20120035356A1, “Hydroxycarboxylic Acids and Salts” (priority 2006, published 2012).
Read-outs that look alike come from different tables or passages of the source.

How the values were obtained:
[1] = Corrosion test NACE TM0169-95 modified by PNS, steel coupons in 3% NaCl solution; design: Percent Effectiveness: scale not given: direction of the effect not stated beside the values; settings: Table 1; for Corrosion rate MPY: 72 h; for Percent Effectiveness: NaCl control 100%, water 0%, lower is better, 30% or less acceptable (PNS); for Corrected corrosion rate MPY^1: distilled water MPY subtracted
Description: Corrosion tests were performed according to the National Association of Corrosion Engineers (NACE) Standard TM0169-95 modified by the Pacific Northwest Snowfighters (PNS) (NACE TM0169-95).
The test procedure was modified to use 30 mL of a 3% solution of inhibitor per square inch of total coupon surface area. Stamped and numbered steel TSI coupons which met the ASTM F436 Type 1 requirement with a Rockwell hardness of C 38-45 were used for each corrosion test. Approximate coupon dimensions are 1.37 in. outer diameter, 0.60 in. inner diameter, and 0.10 in. thickness with a density of 7.85 grams per cubic centimeter. Coupons were placed in a sealed container on a rock tumbler with a non-abrasive cleanser for 30 minutes to remove surface grease and impurities. Coupons were wiped with acetone to remove any additional grease, rinsed with deionized water, and then acid etched with an 18.5% HCl solution for approximately 3 minutes. The coupons were rinsed with tap water, rinsed with deionized water, patted dry and placed in chloroform for 15 minutes. The coupons were removed from chloroform and allowed to air dry in a ventilated hood for 1 hour. Each coupon was then weighed to the nearest 0.1 mg. at least two times to ensure a consistent weight.
Distilled water was used to prepare each solution and control standard. Sodium chloride was used as the salt standard. A 3% solution of NaCl (EMD, analyzed reagent grade, 9.6 g) in distilled water (310.4 g) was prepared as a salt standard (w/v). Each test solution was prepared with 3% NaCl, 310.4 g distilled water, and a corrosion inhibitor. Two NaCl salt solutions containing each inhibitor were prepared at 3% and 1.5% inhibitor concentration (by weight of salt, 288 mg and 144 mg, respectively). Approximately 300 mL of each solution in distilled water was transferred to a clean 500 mL Erlenmeyer flask equipped with a rubber stopper which had been drilled to allow a thin line attached to a plastic rod to run through it. The pH of each solution was measured and recorded. Aqueous 5% sodium hydroxide was carefully added (1-2 drops) until a basic pH was established for each test solution. The pH of the NaCl and H2O control solutions was not altered. Three coupons were attached to a plastic bar suspended within each flask through the stopper hole. A timed device raised and lowered the test coupons so they were immersed in the test solution for 10 minutes of each hour for a 72 hour period. Tests were conducted at room temperature.
After the 72 h. test period, the coupons were quickly removed from solution, rinsed under tap water and vigorously rubbed to remove any surface corrosion material. The coupons were then placed in shallow evaporating dishes containing a cleaning solution of concentrated hydrochloric acid, stannous chloride (50 g/liter), and antimony chloride (20 g/liter) for 15 minutes. The coupons were removed from the acid solution, rinsed vigorously under tap water, and returned to the cleaning solution for an additional 15 minutes. The coupons were again removed from the acid solution, rinsed under tap water, rinsed under deionized water, patted dry, and placed in a vessel containing chloroform for 10 minutes. The coupons were removed from the chloroform and allowed to air dry under a ventilated hood for 1 hour before being weighed to the nearest 0.1 mg. Each coupon was weighed twice to ensure a true final weight. Corrosion rate in mils per year (MPY) was calculated from the measured weight loss of each coupon using the following equation: […]
The corrosion value for the control solution of distilled H2O was also calculated. The MPY value of the distilled water was subtracted from the MPY value of each sample solution containing 3% NaCl to provide a corrected MPY value, which is noted as MPY′.

[2] = cited from earlier work
Water solubility = type: physicochemical; settings: at the higher pH
[3] = 1.5 weight % inhibitor in 3% NaCl, room temperature, >pH 8 except sodium D-gluconate (pH 6.1)
[4] = 1.5 weight % inhibitor in 3% NaCl
[5] = 3.0 weight % inhibitor in 3% NaCl, >pH 8 except sodium D-gluconate (pH 6.1) and commercial liquid gluconate product (pH 3.2)
[6] = 3.0 weight % inhibitor in 3% NaCl

Structure (SMILES): O=C([O-])[C@@H](O)[C@@H](O)[C@H](O)[C@@H](O)C(=O)[O-].[K+].[Na+] [sodium potassium D-glucarate]
- Corrosion rate MPY [1, 3]: 23.726 MPY
- Percent Effectiveness [1, 4]: 35.28%
- Corrected corrosion rate MPY^1 [1, 4]: 19.443 MPY
- Corrosion rate MPY [1, 5]: 20.939 MPY
- Percent Effectiveness [1, 6]: 29.84%
- Percent Effectiveness ([1]; 3.0 weight % inhibitor in 3% NaCl, listed as glucarate): ~30%
- Corrected corrosion rate MPY^1 [1, 6]: 16.656 MPY
- water solubility (in words) [2]: readily soluble in water
- water solubility (Water solubility): ca. 70%

Structure (SMILES): O=C([O-])[C@@H](O)[C@@H](O)[C@H](O)[C@@H](O)C(=O)[O-].[K+].[K+] [dipotassium D-glucarate hydrate, dipotassium D-glucarate]
- water solubility (in words) [2]: readily soluble in water

Structure (SMILES): O=C([O-])[C@H](O)[C@@H](O)[C@H](O)[C@H](O)CO.[Na+] [sodium D-gluconate, reference compound]
- Corrosion rate MPY [1, 3]: 24.596 MPY
- Percent Effectiveness [1, 4]: 36.98%
- Corrected corrosion rate MPY^1 [1, 4]: 20.313 MPY
- Corrosion rate MPY [1, 5]: 22.786 MPY
- Percent Effectiveness [1, 6]: 33.45%
- Percent Effectiveness ([1]; 3.0 weight % inhibitor in 3% NaCl, listed as gluconate): > 30%
- Corrected corrosion rate MPY^1 [1, 6]: 18.503 MPY
- water solubility (Water solubility): ca. 60%

Structure (SMILES): O=C([O-])[C@@H](O)[C@@H](O)[C@H](O)[C@@H](O)C(=O)[O-].[Ca+2] [calcium D-glucarate]
- water solubility (in words) [2]: very insoluble in water

Structure (SMILES): O=C(O)[C@@H](O)[C@@H](O)[C@H](O)[C@@H](O)C(=O)[O-].[K+] [Sample III, monopotassium D-glucarate]
- Water reduction (% of control) (Type A (water reducing) trial, admixture dose 2.4-2.5 oz/cwt): 5.04 % of control
- Compressive Strength (% of control) (Type A trial, 7 days): (125%) % of control
- Water reduction (% of control) (Type D (water reducing/set retarding) trial, admixture dose 2.9-5.0 oz/cwt): 5.04 % of control
- Compressive Strength (% of control) (Type D trial, 7 days): (117%) % of control
- Compressive Strength (% of control) (Type D trial, 28 days): (118%) % of control
- water solubility [2]: about 10%
